According to BindingDB's records for doi:10.1021/jm970265x (Glaxo Wellcome Research and Development, 1997):
pKi: −log10 of the molar value. Where “and” joins values, the source holds several entries; their conditions need not be identical. Equal values may be shown once.

Biological target: T1, Gastrin/cholecystokinin type B receptor (Homo sapiens, UniProt P32239)
T1 sequence (P32239 whole entry): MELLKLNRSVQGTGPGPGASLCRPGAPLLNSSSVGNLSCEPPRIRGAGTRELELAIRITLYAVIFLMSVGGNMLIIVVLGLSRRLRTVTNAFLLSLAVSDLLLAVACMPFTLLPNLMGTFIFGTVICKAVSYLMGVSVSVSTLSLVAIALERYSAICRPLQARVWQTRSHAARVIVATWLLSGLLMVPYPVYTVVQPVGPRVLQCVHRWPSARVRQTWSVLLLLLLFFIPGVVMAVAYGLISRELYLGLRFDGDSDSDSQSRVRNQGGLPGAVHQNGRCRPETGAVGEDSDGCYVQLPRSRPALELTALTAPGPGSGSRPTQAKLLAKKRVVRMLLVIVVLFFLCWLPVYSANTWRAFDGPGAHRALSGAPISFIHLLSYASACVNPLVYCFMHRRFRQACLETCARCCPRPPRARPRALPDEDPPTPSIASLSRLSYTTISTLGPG

With `CC(C)N(C(=O)CN1C(=O)C(Cc2n[nH]c3ccccc23)C(=O)N(c2ccccc2)c2ccccc21)c1ccc(C(F)(F)F)cc1` (stereo not drawn) [CCK-A Agonist 39] as the compound, how does the pKi read?
The pKi was 5.78.

How did the pKi turn out when `CC(C)N(C(=O)CN1C(=O)C(Cc2n[nH]c3ccccc23)C(=O)N(c2ccccc2)c2ccccc21)c1ccc(F)cc1` (stereo not drawn) [CCK-A Agonist 38] was run?
The pKi was 6.86 and 6.32.

How did the pKi turn out when `COc1cccc(N(C(=O)CN2C(=O)C(Cc3n[nH]c4ccccc34)C(=O)N(c3ccccc3)c3ccccc32)C(C)C)c1` (stereo not drawn) [CCK-A Agonist 40] was run?
Its pKi is 6.32 and 6.72.

`CC(C)N(C(=O)CN1C(=O)C(Cc2n[nH]c3ccccc23)C(=O)N(c2ccccc2)c2ccccc21)c1ccccc1` (stereo not drawn) [CCK-A Agonist 37] was tested. Which pKi did it give?
Its pKi is 7.06 and 6.75.

With `COc1ccc(N(C(=O)CN2C(=O)C(Cc3n[nH]c4c(F)cccc34)C(=O)N(c3ccccc3)c3ccccc32)C(C)C)cc1` (stereo not drawn) [CCK-A Agonist 34] as the compound, how does the pKi read?
The pKi was 5.98.

With `COc1ccccc1N(C(=O)CN1C(=O)C(Cc2n[nH]c3ccccc23)C(=O)N(c2ccccc2)c2ccccc21)C(C)C` (stereo not drawn) [CCK-A Agonist 41] as the compound, how does the pKi read?
The pKi was 6.89.

`CC(C)N(C(=O)CN1C(=O)C(Cc2n[nH]c3ccccc23)C(=O)N(c2ccccc2)c2ccccc21)c1ccc2c(c1)OCO2` (stereo not drawn) [CCK-A Agonist 42] was tested. Which pKi did it give?
The pKi was 6.14.

How did the pKi turn out when `CC(C)(C)N(C(=O)CN1C(=O)C(Cc2n[nH]c3ccccc23)C(=O)N(c2ccccc2)c2ccccc21)c1ccccc1` (stereo not drawn) [CCK-A Agonist 45] was run?
Its pKi is 6.05.
